From US20080280987A1, “Methods of inhibiting angiogenesis and treating angiogenesis-associated diseases” (priority 2006, published 2008)
In brackets after ≈: the same amount, converted by molar mass.

Key:
[1] = system: established HT-29 colon cell tumors; assay: Anti-tumor activity in HT-29 xenograft mouse model; type: in vivo; settings: 100 mg/kg every day for 4 doses, tumors 900 mm^3
Experimental: The anti-tumor activity of Nab-5404 and Nab-5676 was evaluated in a xenograft mouse model. The compounds were tested against established HT-29 colon cell tumors in vivo in two cycles, the first a low-dosage schedule followed by a second high-dosage schedule. Irinotecan was used as a positive control in the study. Mice (n=10) were separated into 8 groups with Nab-5404 and Nab-5676 mice receiving the compounds by intravenous injection. The first cycle consisted of administration of Nab-5404 or Nab-5676 every 3 days for 4 doses for days 0-14 followed by the second cycle which consisted of administration of Nab-5404 or Nab-5676 every 3 days for 4 doses for days 15-30. Irinotecan was administered by intravenous injection at a dose of 60 mg/kg every 3 days for 4 doses. The individual groups are shown in Table 2, wherein 1st cycle refers to days 0-14 and 2nd cycle refers to days 15-30.
Combretastatin 4-phosphate (CA4P) was also administered to HT-29 tumor-bearing mice in a separate experiment. The mice (n=10) were treated once tumors reached 900 mm^3 with either vehicle or CA4P at the reported MTD of 100 mg/kg on a schedule of every day for 4 doses.

[2] = system: established HT-29 colon cell tumors; settings: mice, every day for 4 doses; cited from earlier work
[3] = system: human endothelial cells co-cultured with human fibroblast cells; assay: Microvessel/tubule formation and disruption assay, TCS CellWorks AngioKit model; type: cell-based; settings: treated on day 11, stained on day 12
Experimental: To study the effect of Nab-5404 and Nab-5676 on angiogenesis, the compounds were evaluated in a microvessel formation assay using a TCS CellWorks AngioKit model (TCS CellWorks Ltd., Botolph Claydon, Buckingham UK). The AngioKit model uses human endothelial cells co-cultured with other human cells. The endothelial cells initially form small islands within the culture matrix, then begin to proliferate and then enter a migratory phase during which they move through the matrix to form threadlike tubule structures. These gradually join up to form a network of tubules which closely resemble a capillary bed (at day 9-11). The tubules stain positive for von Willebrand's factor, CD31 (PECAM-1) and ICAM-2.
In addition to Nab-5404 and Nab-5676, a known vascular targeting agent, combretastatin 4-phosphate (CA4P), was tested for in vitro anti-angiogenic activity. The TCS CellWorks AngioKit model was used according to the manufacturer's instructions. As outlined above, human endothelial cells were co-cultured with human fibroblast cells in a 24 well plate and exposed to Nab-5404, Nab-5676 or CA4P across a range of concentrations (0.01 to 100 μg/ml). […] The length of the tubules was analyzed using ImagePro software and the IC50 of each compound was calculated using Prism software. […]

Structure (SMILES): COc1ccc(/C=C\c2cc(OC)c(OC)c(OC)c2)cc1OP(=O)(O)O [CA4P, combretastatin 4-phosphate]
- Activity in HT-29 tumor model [1]: inactive
- Reported MTD [2]: 100 mg/kg
- IC50 disrupting established tubules (tubule length) [3]: 3 ng/mL (≈ 7.57 nM)
